# Patent US8470889B2 (TRT Pharma Inc., priority 2008, dated 2013)
# Where a chain is given by its changes, count along the chain named. Like-named read-outs stand apart in the source and are kept apart here.
# Tests used:
# [1] = system: PC-3 cells; assay: MTT cell growth inhibition, PC-3; conditions: for Cytotoxicity in prostate cancer cell lines IC50 (μM), PC-3: Part D table, 72 hours, I.A. = Inactive
# [2] = system: LNCaP cells; assay: MTT cell growth inhibition, LNCaP;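 also: MTT formazan absorbance at 600 nm read after 72 h of compound exposure, IC50 fitted by nonlinear regression of dose-response curves, samples run in triplicate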
# Description: (§4) MDA PCa 2b was seeded at the same density in medium BRFF-HPC1 (Athena Enzyme Systems, Baltimore, Md., USA) supplemented with 20% FBS. After overnight incubation, the medium was changed to a fresh medium containing different concentrations of test compounds diluted from stock DMSO solution. The final concentration of DMSO is 0.5%. After 72 h of incubation with test compounds, 20 μL of 3-(4,5-dimethyl thiazol-2-yl)-2,5-diphenyltetrazolium bromide (MTT) solution (5 mg/mL in PBS) were added to each well and incubated further for 2 h. Next, the supernatant was aspirated and the MTT formazan formed by metabolically viable cells was dissolved in 100 μL of isopropanol. The plates were mixed for 30 min, and the absorbance was measured at 600 nm on a plate reader (FLUOstar OPTIMA, BMG LabTech). All samples were in triplicate. The IC50 values were determined from dose-response curves by nonlinear regression using PRISM v5.00 (GraphPad Software Inc, La Jolla, Calif., USA).
# (§5) The in vitro cytotoxicity of 1-20 were evaluated by MTT assays in a panel of prostate cancer cell lines, including LNCaP, MDA PCa 2b, 22Rv1, C4-2B and PC-3.
# [3] = system: 22Rv1 cells; assay: MTT cell growth inhibition, 22Rv1; conditions: for IC50: MTT
# Description: as §4, §5
# [4] = system: C4-2B cells; assay: MTT cell growth inhibition, C4-2B;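 also: cells treated with a dilution series for 72 h, then MTT added and absorbance read at 600 nm, IC50 fitted from dose-response curves by nonlinear regression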
# Description: as §4, §5
# [5] = system: MDA PCa 2b cells; assay: MTT cell growth inhibition, MDA PCa 2b; conditions: for IC50: MTT;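 as to all read-outs here: MDA PCa 2b prostate cancer cells in BRFF-HPC1 with 20% FBS, exposed to compounds for 72 h, viable-cell MTT formazan read as absorbance at 600 nm, 0.5% DMSO vehicle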
# Description: as §4, §5
# [6] = molecular target: T1, wild-type human AR (Homo sapiens, UniProt P10275); assay: Luciferase assay for AR transactivation, wild-type AR, PC-3 cells; assay type: cell-based; parameters: Antiandrogenic activity evaluated by luciferase assay in PC-3 cells WT: key to the marks not given beside the values; conditions: test compound 1 μM, 0.1 nM DHT
# T1 construct: utilizing plasmid expressing a full length of AR; expressed in transfected cells; host or cells: PC-3 cells, plasmid pCMV-AR-wt
# T1 sequence (P10275 1-920): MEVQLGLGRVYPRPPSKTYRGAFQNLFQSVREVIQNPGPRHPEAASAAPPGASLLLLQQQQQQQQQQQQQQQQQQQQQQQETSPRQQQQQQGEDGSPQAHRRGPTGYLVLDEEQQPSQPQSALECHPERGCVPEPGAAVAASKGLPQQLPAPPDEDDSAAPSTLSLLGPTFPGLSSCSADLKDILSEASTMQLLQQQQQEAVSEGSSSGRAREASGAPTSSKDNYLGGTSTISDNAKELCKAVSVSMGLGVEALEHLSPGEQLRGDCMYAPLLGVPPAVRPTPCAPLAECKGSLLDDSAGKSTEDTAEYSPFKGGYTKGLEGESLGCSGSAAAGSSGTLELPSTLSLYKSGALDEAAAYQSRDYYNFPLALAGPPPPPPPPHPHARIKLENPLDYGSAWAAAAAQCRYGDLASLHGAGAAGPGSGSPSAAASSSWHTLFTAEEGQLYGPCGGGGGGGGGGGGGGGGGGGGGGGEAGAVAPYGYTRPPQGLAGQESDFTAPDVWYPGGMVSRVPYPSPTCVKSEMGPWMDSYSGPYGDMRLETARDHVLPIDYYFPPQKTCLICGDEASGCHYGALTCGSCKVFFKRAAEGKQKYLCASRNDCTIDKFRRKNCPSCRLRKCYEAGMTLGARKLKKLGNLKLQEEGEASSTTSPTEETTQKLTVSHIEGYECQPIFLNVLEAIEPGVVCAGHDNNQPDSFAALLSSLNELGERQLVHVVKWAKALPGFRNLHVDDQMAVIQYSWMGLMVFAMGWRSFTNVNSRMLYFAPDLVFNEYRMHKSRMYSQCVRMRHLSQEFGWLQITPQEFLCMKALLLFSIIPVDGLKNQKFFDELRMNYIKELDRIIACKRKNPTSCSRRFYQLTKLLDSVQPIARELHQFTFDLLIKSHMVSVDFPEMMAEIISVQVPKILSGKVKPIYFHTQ
# Description: (§1) PC-3 cells were transiently transfected with pCMV-MMTV-Luc, Renilla null luciferase and AR expressing plasmids. The cells were treated with 0.1 nM DHT with and without test compound for 24 hr. Relative luciferase activity was determined by dual luciferase assay kit (Promega), standardized to Renilla luciferase control and normalized to 0.1 nM DHT without test compound (100%).
# (§2) After 16 h, the cells were treated with 0.1 nM of DHT and test compounds at the designated concentration. After further 24 h, the cells were lysed in 100 μL/well passive lysis buffer, and 20 μL of the cell lysates was used for detection of the luciferase activity using Dual Luciferase Assay System (Promega). All experiments were run in triplicate. Relative luciferase activity is determined as the ratio of inducible firefly luciferase luminescence divided by the luminescence of the renilla luciferase control normalized to 0.1 nM DHT without test compounds.
# (§3) The potency of antagonistic activity: ++>+.
# PC-3 cells were transiently transfected with plasmid expressing wild type human AR and MMTV-Luc. […] RLU, relative luciferase units, were normalized to that of 0.1 nM DHT alone.
# [7] = molecular target: T2, T877A mutated AR (Homo sapiens, UniProt P10275, T878A); assay: Luciferase assay for AR transactivation, T877A AR, PC-3 cells; assay type: cell-based
# T2 sequence (P10275 1-920 T878A): T1 sequence (P10275 1-920) with T878A
# Description: as §1, §2, §3
# [8] = molecular target: T3, H874Y mutated AR (Homo sapiens, UniProt P10275, H875Y); assay: Luciferase assay for AR transactivation, H874Y AR, PC-3 cells; assay type: cell-based; conditions: test compound 1 μM, 0.1 nM DHT
# T3 sequence (P10275 1-920 H875Y): T1 sequence (P10275 1-920) with H875Y
# Description: as §1, §2, §3
# [9] = read-out: Cytotoxicity in prostate cancer cell lines IC50 (μM), 22Rv1, Part D table, 72 hours
# [10] = read-out: Cytotoxicity in prostate cancer cell lines IC50 (μM), PCa-2b, Part D table, 72 hours
# [11] = read-out: Cellular IC50 (μM) PC3, Table 8
# [12] = read-out: Cellular IC50 (μM) LNCaP, Table 8
# [13] = read-out: Cellular IC50 (μM) 22Rv1, Table 8
# [14] = read-out: Cellular IC50 (μM) C4-2B, Table 8
# [15] = read-out: Cellular IC50 (μM) PCa2b, Table 8
# [16] = read-out: Cellular IC50 (μM) PC-3, Table 2, 72 h, max tested 50 μM (β-ionone 150 μM)
# [17] = read-out: Cellular IC50 (μM) LNCaP, Table 2, 72 h
# [18] = read-out: Cellular IC50 (μM) 22Rv1, Table 2, 72 h
# [19] = read-out: Cellular IC50 (μM) C4-2B, Table 2, 72 h
# [20] = read-out: Cellular IC50 (μM) PCa 2b, Table 2, 72 h
# [21] = Part D table, 72 hours, I.A. = Inactive
# [22] = 72 hrs, concentrations up to 50 μM, FIG. 2
"IC50 [1, 11] [µM]","IC50 [2, 12] [µM]","IC50 [3, 13] [µM]","IC50 [1, 16] [µM]","IC50 [2, 17] [µM]","IC50 [3, 18] [µM]",Structure (SMILES),"IC50 [4, 14] [µM]","IC50 [5, 15] [µM]","IC50 [4, 19] [µM]","IC50 [5, 20] [µM]",further results
32.9,19.6,22.6,,,,COc1cc(/C=C/C(=O)/C=C/C2=C(C)C(O)CCC2(C)C)ccc1O (stereo not shown) [Compound B68],20.3,> 25,,,
3.5,0.74,1.7,,,,CC1=C(/C=C/C(=O)/C=C/c2cccc(C(F)(F)F)c2)C(C)(C)CCC1O (stereo not shown) [Compound B45],1.4,2.6,,,
15.5,5.8,8,,,,CC1=C(/C=C/C(=O)/C=C/c2ccccc2)C(C)(C)CCC1O (stereo not shown) [Compound B44],1.8,12.6,,,

# The remaining lines, values behind:
Structure (SMILES),"IC50 [1, 11] [µM]","IC50 [2, 12] [µM]","IC50 [3, 13] [µM]","IC50 [1, 16] [µM]","IC50 [2, 17] [µM]","IC50 [3, 18] [µM]","IC50 [4, 14] [µM]","IC50 [5, 15] [µM]","IC50 [4, 19] [µM]","IC50 [5, 20] [µM]",further results
"CC(O)(CS(=O)(=O)c1ccc(F)cc1)C(=O)Nc1ccc(C#N)c(C(F)(F)F)c1 (stereo not shown) [Bic, bicalutamide, reference compound]",,,,,,,,,,,"Cytotoxicity in prostate cancer cell lines IC50 (μM), PC-3 [1]: I.A.; IC50 ([2]; read-out: Cytotoxicity in prostate cancer cell lines IC50 (μM), LNCaP, Part D table, 72 hours, I.A. = Inactive): 12.7 µM; IC50 [3, 9]: > 50 µM; IC50 ([4]; read-out: Cytotoxicity in prostate cancer cell lines IC50 (μM), C4-2B, Part D table, 72 hours, I.A. = Inactive): > 25 µM; IC50 [5, 10]: > 50 µM"
CC1=C(C=CC(=O)C(=Cc2ccc(O)cc2)C(=O)C=Cc2ccc(O)cc2)C(C)(C)CCC1 [Compound 14],,,,6.7,4.5,4.7,,,4,4.7,
COc1cc(C=CC(=O)C(=Cc2cc(OC)c(O)c(OC)c2)C(=O)C=CC2=C(C)CCCC2(C)C)cc(OC)c1O [Compound 15],,,,12.5,8.7,17.6,,,8.5,15.3,
CCn1c2ccccc2c2cc(/C=C(\C(=O)/C=C/C3=C(C)CCCC3(C)C)C(=O)/C=C/c3ccc(O)c(OC)c3)ccc21 [Compound 19],,,,7,2.3,2.4,,,2.3,8.1,
"CC(C)(O)C(=O)Nc1ccc([N+](=O)[O-])c(C(F)(F)F)c1 [OHF, hydroxyflutamide, reference compound]",,,,,,,,,,,"Antiandrogenic activity evaluated by luciferase assay in PC-3 cells WT [6]: ++; agonist activity on T877A AR ([7]; absence of DHT, PC-3 cells): activated; Antiandrogenic activity evaluated by luciferase assay in PC-3 cells T877A ([7]; test compound 1 μM, 0.1 nM DHT): Agonist; Antiandrogenic activity evaluated by luciferase assay in PC-3 cells H874Y [8]: +; Cytotoxicity in prostate cancer cell lines IC50 (μM), PC-3 [1]: I.A.; Cytotoxicity in prostate cancer cell lines IC50 (μM), LNCaP [2, 21]: I.A.; growth inhibitory effect on 22Rv1 cells [3, 22]: resistant; IC50 [3, 9]: > 50 µM; Cytotoxicity in prostate cancer cell lines IC50 (μM), C4-2B [4, 21]: I.A.; growth inhibitory effect on PCa 2b cells [5, 22]: resistant; IC50 [5, 10]: > 50 µM"
CCOc1ccc(C=CC(=O)C(=Cc2ccc(OCC)c(OCC)c2)C(=O)C=CC2=C(C)CCCC2(C)C)cc1OCC [Compound 13],,,,14.1,14.9,,,,,6.8,
